Assay results from patent publication US20230173047A1, “CITRULLINATED NUCLEOPHOSMIN PEPTIDES AS CANCER VACCINES” (SCANCELL LIMITED, priority 2020, published 2023).
Where a SMILES comes first, the peptide text is derived from it. [ ]: non-standard residue; d: D form. Cit = NC(=O)NCCC[C@H](N)C(=O)O

Columns and labels:
Assay type in all cases: in vivo, mouse
[1] = system: B16 HHDII/iDP4 tumour cells; details: immunised tumour bearing mice
Protocol: (§1) HLA-DR4 mice (Taconic, USA) and the HHDII/HLA-DP4 transgenic strain of mouse as described in patent WO2013/017545 A1 (EMMA repository, France) were used, aged between 8 and 12 weeks, and cared for by the staff at Nottingham Trent University. All work was carried out under a Home Office project licence. Peptides were dissolved in 10% dimethylformamide to 1 mg/mL and then emulsified (a series of dilutions) with the adjuvant CpG and MPLA 6 µg/mouse of each (Invivogen, UK). Peptides (25 µg/mouse) were injected subcutaneously at the base of the tail.
For tumour challenge experiments, mice were challenged with 1×10^5 B16 HHDII/iDP4, B16F1HHDIIMHCIIKO or B16 HHDII/PAD2KOcDP4 cells subcutaneously on the right flank 3 days before primary immunisation (unless stated otherwise) and then immunised as described above. Tumour growth was monitored at 3-4 days intervals and mice humanely euthanised once tumour reached ≥10 mm in diameter.
The inventors had already established by Western blotting that the melanoma B16F1 cell lines constitutively express NPM and in vitro citrullination of NPM generates citrulline at position 277 (FIG. 5A and B). Next, the anti-tumour effect of NPM 266-285 cit peptide immunisation was assessed in vivo. The effect of immunisation with NPM 266-285 (cit and wt) on the growth of the mouse B16 melanoma cell line transfected with IFNy inducible human DP4 (iDP4) was assessed. […]

[2] = system: T cell response in HLA-DR4 and HHDII/DP4 transgenic mice; experiment: Screening of citrullinated NPM peptides for T cell (IFNy) responses in HLA-DR4 and HHDII/DP4 transgenic mice; details: for T cell response: citrullinated NPM peptides, HLA-DR4 and HHDII/DP4 transgenic mice, IFNy ELISpot
Protocol: as §1
(§2) ELISpot assays were performed using murine IFNy capture and detection reagents according to the manufacturer’s instructions (Mabtech, Sweden). In brief, anti-IFNʏ antibody was coated onto wells of a 96-well Immobilin-P plate. Synthetic peptides (at a variety of concentrations) and 5×10^5 per well splenocytes were added to the wells of the plate in triplicate. LPS at 5 µg/mL was used as a positive control. Peptide pulsed target cells were added where relevant at 5×10^4 per well in triplicate and plates incubated for 40 hours at 37° C. After incubation, captured IFNy was detected by a biotinylated anti-IFNʏ antibody and developed with a streptavidin alkaline phosphatase and chromogenic substrate. […] For blocking studies, anti-CD4 blocking antibody (RPA-T4) and anti-CD8 blocking antibody (2.43) from Bioxcell were used at 20 µg/mL. Spots were analysed and counted using an automated plate reader (Cellular Technologies Ltd).
T cell responses to tumour associated epitopes are often weak or non-existent due to tolerance and T cell deletion within the thymus. The citrullinated NPM peptides were screened in HLA-DR4 and HHDII/DP4 transgenic mice for their ability to stimulate IFNy responses. Every peptide containing an arginine was selected and the arginine residue was replaced with citrulline (cit).
(§3) Screening was performed to identify potential citrullinated NPM epitopes that could generate an immune response in mice. Mice were immunised with pools of 4-6 human citrullinated peptides. […] Each pool was administered subcutaneously as a single immunisation given once a week for three weeks. Each peptide pool contained 25 µg of each peptide in combination with CpG/MPLA as an adjuvant. Mice were culled 7 days after the third immunisation, the immune response to each peptide within the immunising pool were assessed by ex vivo IFNy ELISpot (FIG. 2). We have previously shown that citrullinated peptides can induce responses in the transgenic DR4 mouse strain. Given that different mouse strains have different MHC repertoires, two different transgenic strains (DR4 and DP4) were used for screening.

[3] = system: splenocytes of HHDII/DP4 transgenic mice; experiment: Ex vivo IFNy ELISpot on splenocytes after peptide immunisation, HHDII/DP4 mice; details: for IFNy immune response to peptide: HHDII/DP4 mice immunised with peptide pools, 25 µg each + CpG/MPLA, weekly x3, vs media only
Protocol: as §1, §2, §3
The core epitope was confirmed by immunising mice once weekly for three weeks with 25 µg of the NPM 261-280 cit or 266-285 cit peptide. HHDII/DP4 mice were immunised with the individual peptides whereas HLA-DR4 mice were immunised with a combination of NPM 261-280 cit and 266-285 cit, all given with CpG/MPLA. Mice were culled 7 days after the third immunisation.
To determine if the immune response to the NPM 266-285 peptide is specific to the citrullinated peptide and not the wild type (wt) version, mice were immunised with NPM 266-285 cit or NPM 266-285 wt peptides. HHDII/DP4 mice received 25 µg peptide (NPM 266-285 cit or NPM 266-285 wt) subcutaneously once a week for three weeks. Mice were culled 7 days after the third immunisation, the immune response to each peptide was assessed by ex vivo ELISpot (FIGS. 4A and 4B). […] In contrast, strong IFNy responses were detected in mice immunised with NPM 266-285 cit, these responses were significant when compared to the response to the NPM 266-285 wt peptide (p=0.0002) and the control (p=<0.0001). […]

[4] = system: splenocytes of HLA-DR4 transgenic mice; experiment: Ex vivo IFNy ELISpot on splenocytes after peptide immunisation, HLA-DR4 mice
Protocol: as §1
ELISpot assays were performed using murine IFNy capture and detection reagents according to the manufacturer’s instructions (Mabtech, Sweden). In brief, anti-IFNʏ antibody was coated onto wells of a 96-well Immobilin-P plate. […] After incubation, captured IFNy was detected by a biotinylated anti-IFNʏ antibody and developed with a streptavidin alkaline phosphatase and chromogenic substrate. […] Spots were analysed and counted using an automated plate reader (Cellular Technologies Ltd).
Screening was performed to identify potential citrullinated NPM epitopes that could generate an immune response in mice. […] Mice were culled 7 days after the third immunisation, the immune response to each peptide within the immunising pool were assessed by ex vivo IFNy ELISpot (FIG. 2). […]

Compound | T cell response [2] | other results
CC[C@H](C)[C@H](NC(=O)[C@H](C)NC(=O)[C@H](CCC(=O)O)NC(=O)[C@H](CCC(N)=O)NC(=O)[C@H](CC(=O)O)NC(=O)[C@@H](NC(=O)[C@H](CCSC)NC(=O)[C@H](CCCNC(N)=O)NC(=O)[C@H](Cc1ccccc1)NC(=O)[C@H](CS)NC(=O)[C@H](CC(N)=O)NC(=O)[C@H](CCCCN)NC(=O)[C@@H](NC(=O)[C@H](Cc1ccc(O)cc1)NC(=O)[C@H](CC(N)=O)NC(=O)[C@@H](NC(=O)[C@H](Cc1ccccc1)NC(=O)[C@H](CCCCN)NC(=O)[C@H](C)N)[C@@H](C)CC)C(C)C)[C@@H](C)O)C(=O)N[C@@H](CCC(N)=O)C(=O)O [NPM 266-285 cit, AKFINYVKNCF-cit-MTDQEAIQ] (H-AKFINYVKNCF[Cit]MTDQEAIQ-OH) | – | Associated toxicity [1]: no associated toxicity
CC[C@H](C)[C@H](NC(=O)[C@H](C)NC(=O)[C@H](CCC(=O)O)NC(=O)[C@H](CCC(N)=O)NC(=O)[C@H](CC(=O)O)NC(=O)[C@@H](NC(=O)[C@H](CCSC)NC(=O)[C@H](CCCNC(=N)N)NC(=O)[C@H](Cc1ccccc1)NC(=O)[C@H](CS)NC(=O)[C@H](CC(N)=O)NC(=O)[C@H](CCCCN)NC(=O)[C@@H](NC(=O)[C@H](Cc1ccc(O)cc1)NC(=O)[C@H](CC(N)=O)NC(=O)[C@@H](NC(=O)[C@H](Cc1ccccc1)NC(=O)[C@H](CCCCN)NC(=O)[C@H](C)N)[C@@H](C)CC)C(C)C)[C@@H](C)O)C(=O)N[C@@H](CCC(N)=O)C(=O)O [NPM 266-285 wt, reference compound] (H-AKFINYVKNCFRMTDQEAIQ-OH) | – | Associated toxicity [1]: no associated toxicity
AEEKAPVKKSI-cit-DTPAKNAQ [186-205] | No | IFNy immune response to peptide [3]: failed to induce an immune response
AKFINYVKNCF-cit-MTD [NPM 266-280 cit] | Yes | Response to core peptide compared with NPM 266-285 cit [4]: significant difference; Response to core peptide compared with NPM 261-280 cit or NPM 266-285 cit ([3]; HHDII/DP4 transgenic mice, IFNy ELISpot): no significant difference
DENEHQLSL-cit-TVSLGAGAKD [36-55] | No | –
DMDMSPL-cit-PQNYLFGCELKA [6-25] | No | –
EDEEEEDVKLLSISGK-cit-SAP [126-145] | No | –
EDVKLLSISGK-cit-SAPGGGSK [131-150] | No | –
F-cit-MTDQEAIQDLWQWcitKSL [276-294] | No | –
FDDEEAEEKAPVKKSI-cit-DTP [181-200] | No | –
FKVDNDENEHQLSL-cit-TVSLG [31-50] | No | –
GFETPPVVL-cit-LKCGSGPVH [91-110] | No | –
GKDSKPSSTP-cit-SKGQESFKK [211-230] | No | –
KSNQNGKDSKPSSTP-cit-SKGQ [206-225] | No | –
LPKVEAKFINYVKNCF-cit-MTD [NPM 261-280 cit] | Yes | Frequency of IFNy responses ([2]; HHDII/DP4 and HLA-DR4 mice): high frequency IFNy responses; IFNy immune response to peptide [3]: significant immune responses; IFNy response to peptide ([3]; core epitope study, HHDII/DP4 mice immunised with individual peptide 25 µg weekly x3 + CpG/MPLA): Significant IFNʏ responses
LSISGK-cit-SAPGGGSKVPQKK [136-155] | No | –
MEDSMDMDMSPL-cit-PQNYLFG [1-20] | No | –
PPVVL-cit-LKCGSGPVHISGQH [96-115] | No | –
PSSTP-cit-SKGQESFKKQEKTP [216-235] | No | –
PVKKSI-cit-DTPAKNAQKSNQN [191-210] | No | IFNy immune response to peptide [3]: failed to induce an immune response
QLSL-cit-TVSLGAGAKDELHIV [41-60] | No | –
TVSLGGFEITPPVVL-cit-LKCG [86-105] | No | –
YVKNCF-cit-MTDQEAI QDLWQW [271-290] | No | –
